Reference: PubChem BioAssay (NCI)
Where “and” joins values, the source holds several entries; their conditions need not be identical. Identical values can stand only once.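 Step 1: Grow cells in 96-well plates. Step 2: Expose to compound for 48 hours at 5 concentrations. Step 3: Interpolate endpoints linearly; if unreached, use highest concentration. GI50: concentration for 50% inhibition of growth. At the TGI there is no net growth.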

How the values were obtained:
Experiment in all cases: inhibition of tumour cell growth, NCI panel, 48 h
COLO 205 colon = test system: COLO 205 colon
HCT-116 colon = test system: HCT-116 colon
HT29 colon = test system: HT29 colon
LOX IMVI melanoma = test system: LOX IMVI melanoma
NCI-H23 lung = test system: NCI-H23 lung
SK-MEL-2 melanoma = test system: SK-MEL-2 melanoma
SW-620 colon = test system: SW-620 colon
MDA-MB-231 breast = test system: MDA-MB-231 breast
SK-MEL-28 melanoma = test system: SK-MEL-28 melanoma
SNB-19 CNS = test system: SNB-19 CNS

Compound | TGI (COLO 205 colon) | TGI (HCT-116 colon) | TGI (HT29 colon) | TGI (LOX IMVI melanoma) | TGI (NCI-H23 lung) | TGI (SK-MEL-2 melanoma) | TGI (SW-620 colon) | TGI (MDA-MB-231 breast) [µM] | TGI (SK-MEL-28 melanoma) | TGI (SNB-19 CNS) | GI50 (COLO 205 colon) [µM] | GI50 (HCT-116 colon) | GI50 (HT29 colon) [µM] | GI50 (LOX IMVI melanoma) | GI50 (NCI-H23 lung) [µM] | GI50 (SK-MEL-2 melanoma) [µM] | GI50 (SK-MEL-28 melanoma) [µM] | GI50 (SNB-19 CNS) | GI50 (SW-620 colon) [µM] | GI50 (MDA-MB-231 breast) [µM]
OCC(O)C(O)C(O)c1nn[nH]n1 (stereo unspecified) | > 100 µM | > 100 µM | > 100 µM | > 100 µM | > 100 µM | > 100 µM | > 100 µM | – | – | – | – | – | – | – | – | – | – | – | – | –
CC1=CC[C@@H]2[C@@H](CC[C@@]2(C)O)C(C)(C)[C@H]1CC[C@@H]1[C@@]2(C)CC[C@@H](O)C(C)(C)O[C@@H]2CC[C@]1(C)O | 38.1 µM | 27 µM | – | 29.8 µM | 76.2 µM | > 100 µM | 85.7 µM | 34.5 | 35.7 µM | 46.2 µM | – | – | – | – | – | – | – | – | – | –
Cc1cc(Cl)ccc1NC(=O)C1C(=O)C(=O)N(c2ccc(Cl)cc2C)C1=O (stereo unspecified) | > 100 µM | > 100 µM | > 100 µM | > 100 µM | > 100 µM | > 100 µM | > 100 µM | – | > 100 µM | 68.1 µM | – | – | – | – | – | – | – | – | – | –
O=C1C2c3[nH]c4ccccc4c3C3CCC(c4ccccc4)CC3C2C(=O)N1c1ccccc1 (stereo unspecified) | > 100 µM | – | > 100 µM | > 100 µM | > 100 µM | – | > 100 µM | – | > 100 µM | > 100 µM | – | – | – | – | – | – | – | – | – | –
COC(=O)c1ccc(CS(=O)(=O)c2ccccc2)cc1 | > 100 µM | > 100 µM | > 100 µM | > 100 µM | > 100 µM | > 100 µM | > 100 µM | – | > 100 µM | > 100 µM | – | – | – | – | – | – | – | – | – | –
COc1cccc(-c2cc(C(=O)Nc3ccc(Cl)cc3)nc(N)n2)c1 | 71.4 µM | > 100 µM | > 100 µM | > 100 µM | > 100 µM | > 100 µM | > 100 µM | – | > 100 µM | > 100 µM | – | – | – | – | – | – | – | – | – | –
O=S1(=O)OCc2ccccc21 | > 100 µM | > 100 µM | > 100 µM | – | > 100 µM | > 100 µM | > 100 µM | > 100 | > 100 µM | > 100 µM | – | – | – | – | – | – | – | – | – | –
Clc1cc(Cl)cc(C2SCc3nc4ccccc4n32)c1 (stereo unspecified) | 33.9 µM | – | 25.2 µM | – | 45.4 µM | 46.1 µM | 33.6 µM | – | 36.1 µM | 66.9 µM | – | – | – | – | – | – | – | – | – | –
N#Cc1c(N)n(C2OC(CO)C(O)C2O)c2ncnc(N)c12 (stereo unspecified) | 0.191 µM | > 7.59 µM | > 100 µM | 0.0595 µM | 0.206 µM | – | – | > 8.22 | 0.432 µM | > 84.2 µM | – | – | – | – | – | – | – | – | – | –
N#CC1=C(c2ccccc2)NN(Cc2ccccc2)C(c2ccc(Cl)cc2)CC1=O (stereo unspecified) | > 100 µM | 48.5 µM | 38.7 µM | 41.8 µM | > 100 µM | > 100 µM | 54.8 µM | – | > 100 µM | 72.8 µM | – | – | – | – | – | – | – | – | – | –
CCOc1cccc2sc(N)nc12 | > 100 µM | > 100 µM | > 100 µM | > 100 µM | > 100 µM | > 100 µM | > 100 µM | – | > 100 µM | > 100 µM | – | – | – | – | – | – | – | – | – | –
Cc1cc(NCCCNc2ccnc3cc(Cl)ccc23)nc(Nc2ccc(C(=O)N3CCCCC3)cc2)n1 | 3.62 µM | 5.83 µM | 7.2 µM | 3.57 µM | 18.6 µM | 4.29 µM | 4.52 µM | – | 3.75 µM | 12.5 µM | 1.8 | 2.22 µM | 2.33 | 1.82 µM | 4.38 | 2.17 | 2 | 3.55 µM | 2.12 | –
CN1C(=O)C(C)(C)NS1(=O)=O | > 100 µM | > 100 µM | > 100 µM | > 100 µM | > 100 µM | > 100 µM | > 100 µM | – | > 100 µM | > 100 µM | – | – | – | – | – | – | – | – | – | –
CO[C@H](C(=O)O[C@H]1C(=O)N2CCC3CCC1C32C)c1ccccc1 (stereo partly specified) | > 100 µM | > 100 µM | > 100 µM | > 100 µM | > 100 µM | > 100 µM | > 100 µM | – | > 100 µM | > 100 µM | – | – | – | – | – | – | – | – | – | –
CC(C)COC(=O)N1N=NC2C3CC(=O)C(O3)C21 (stereo unspecified) | > 100 µM | > 100 µM | > 100 µM | > 100 µM | > 100 µM | > 100 µM | > 100 µM | – | > 100 µM | > 100 µM | – | – | – | – | – | – | – | – | – | –
O=c1ncc(I)c[nH]1 | > 100 µM | > 100 µM | – | > 100 µM | > 100 µM | > 100 µM | > 100 µM | > 100 | > 100 µM | > 100 µM | > 100 | > 100 µM | – | > 100 µM | > 100 | > 100 | > 100 | > 100 µM | > 100 | > 100
O=c1/c(=C/c2ccccc2O)sc2nc3ccccc3n12 | – | > 100 µM | > 100 µM | 98.3 µM | > 100 µM | > 100 µM | > 100 µM | – | 71.6 µM | > 100 µM | – | – | – | – | – | – | – | – | – | –
C/C(=N\NC(=O)C[n+]1ccccc1)c1sc(-c2nc(C)c(/C(C)=N/NC(=O)C[n+]3ccccc3)s2)nc1C | > 100 µM | > 100 µM | > 100 µM | > 100 µM | > 100 µM | > 100 µM | > 100 µM | – | > 100 µM | > 100 µM | – | – | – | – | – | – | – | – | – | –
CC(=O)O[C@H]1CC[C@@]2(C)C(=CC[C@@H]3C2CC[C@]2(C)C(=O)NC(=O)CC32)C1 (stereo partly specified) | > 100 µM | > 100 µM | > 100 µM | > 100 µM | > 100 µM | > 100 µM | > 100 µM | – | > 100 µM | > 100 µM | – | – | – | – | – | – | – | – | – | –
COc1cccc(-c2cc(=O)c3cc(C)c(C)c(C(=O)O)c3o2)c1 | > 100 µM | > 100 µM | > 100 µM | > 100 µM | > 100 µM | > 100 µM | > 100 µM | – | > 100 µM | > 100 µM | – | – | – | – | – | – | – | – | – | –
CC1OC(OC23C(=O)CC(C)(O)CC2(O)C=CC2=C3C(=O)c3ccc(C4CC(OC5CCC(OC6CC(O)C(O)C(C)O6)C(C)O5)C(O)C(C)O4)c(O)c3C2=O)CCC1O (stereo unspecified) | 11.8 µM and 8.15 µM | 28.5 µM and 18.6 µM | 36.1 µM and 27.8 µM | 27.5 µM and 19.7 µM | 33.1 µM and 30.7 µM | 31.2 µM and 30.5 µM | 15.7 µM and 10.9 µM | – | 29 µM and 27.3 µM | > 100 µM and 51.7 µM | – | 15.1 µM and 5.78 µM | – | 13.1 µM and 6.26 µM | – | – | – | 50.8 µM and 22.8 µM | – | –
C=CCNC(=O)ON1C(=O)CCC1=O | > 100 µM | > 100 µM | > 100 µM | > 100 µM | > 100 µM | > 100 µM | > 100 µM | – | > 100 µM | > 100 µM | – | – | – | – | – | – | – | – | – | –
